The target of this experiment is IDH2 R140Q (Homo sapiens (Human), UniProt P48735, R140Q). As to the kind of experiment: IDH2 R140Q enzymatic cofactor depletion assay (diaphorase/resazurin). The note with it: IDH2 R140Q enzyme, one hour preincubation with compound, one hour reaction; read-out: Enz R140Q. The class given is biochemical. As for the experimental part: The reaction was terminated by the addition of a second enzyme, diaphorase, and a corresponding substrate, resazurin. Diaphorase reduces resazurin to the highly fluorescent resorufin with the concomitant oxidation of NADPH to NADP, both halting the IDH2 reaction by depleting the available cofactor pool and facilitating quantitation of the amount of cofactor remaining after a specific time period through quantitative production of an easily detected fluorophore.
IDH2 R140Q, sequence (P48735 40-452 R140Q): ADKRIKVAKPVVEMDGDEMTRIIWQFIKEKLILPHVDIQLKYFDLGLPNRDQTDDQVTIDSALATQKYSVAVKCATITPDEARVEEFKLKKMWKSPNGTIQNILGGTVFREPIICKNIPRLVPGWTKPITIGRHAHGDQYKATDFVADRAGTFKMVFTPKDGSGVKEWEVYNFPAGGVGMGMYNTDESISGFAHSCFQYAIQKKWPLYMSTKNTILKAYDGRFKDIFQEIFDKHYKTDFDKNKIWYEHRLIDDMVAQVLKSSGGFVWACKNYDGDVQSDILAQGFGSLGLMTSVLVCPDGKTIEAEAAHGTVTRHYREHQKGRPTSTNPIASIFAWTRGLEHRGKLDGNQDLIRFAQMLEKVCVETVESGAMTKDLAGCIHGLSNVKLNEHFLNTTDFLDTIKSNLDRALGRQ
The compound was then incubated for one hour at room temperature with the enzyme; before starting the IDH2 reaction with the addition of 10 μl of substrate mix containing 50 μM NADPH and 6.3 mM α-KG in the buffer described above. After a further one hour of incubation at room temperature, the reaction was halted and the remaining NADPH measured through conversion of resazurin to resorufin by the addition of 25 μl Stop Mix (36 μg/ml diaphorase enzyme and 60 μM resazurin; in buffer). After one minute of incubation the plate was read on a plate reader at Ex544/Em590.

As for `O=C(Nc1ccccc1)Nc1cc(S(=O)(=O)NC2CC2)ccc1-c1ccccc1` [Compound 34, N-cyclopropyl-2-(3-phenylureido)-[1,1′-biphenyl]-4-sulfonamide], the IC50 lay in the range of 0.1 to 1 µM.

As for `O=C(Nc1ccccc1F)Nc1cc(S(=O)(=O)NC2CC2)ccc1-c1ccccc1` [Compound 35, N-cyclopropyl-2-(3-(2-fluorophenyl)ureido)-[1,1′-biphenyl]-4-sulfonamide], the IC50 lay in the range of 0.1 to 1 µM. On to `O=C(Nc1cccc(C(F)(F)F)c1)Nc1cc(S(=O)(=O)NC2CC2)ccc1-c1ccccc1` [Compound 36, N-cyclopropyl-2-(3-(3-(trifluoromethyl)phenyl)ureido)-[1,1′-biphenyl]-4-sulfonamide], for which the IC50 was 0.1 to 1 µM. For the compound `O=C(Nc1ccc(Cl)cc1)Nc1cc(S(=O)(=O)NCC(F)(F)F)ccc1-c1ccccc1` [Compound 37, 2-(3-(4-chlorophenyl)ureido)-N-(2,2,2-trifluoroethyl)-[1,1′-biphenyl]-4-sulfonamide], the IC50 lay in the range of 0.1 to 1 µM. On to `O=C(Nc1cc(F)ccc1F)Nc1cc(S(=O)(=O)NCC(F)(F)F)ccc1-c1ccccc1` [Compound 38, 2-(3-(2,5-difluorophenyl)ureido)-N-(2,2,2-trifluoroethyl)-[1,1′-biphenyl]-4-sulfonamide], for which the IC50 was 0.1 to 1 µM. For the compound `O=C(Nc1ccc(F)cc1)Nc1cc(S(=O)(=O)NCC(F)(F)F)ccc1-c1ccccc1` [Compound 39, 2-(3-(4-fluorophenyl)ureido)-N-(2,2,2-trifluoroethyl)-[1,1′-biphenyl]-4-sulfonamide], the IC50 was in the range of 0.1 to 1 µM.

Turning to `O=C(Nc1ccc(F)c(Cl)c1)Nc1cc(S(=O)(=O)NCC(F)(F)F)ccc1-c1ccccc1` [Compound 40, 2-(3-(3-chloro-4-fluorophenyl)ureido)-N-(2,2,2-trifluoroethyl)-[1,1′-biphenyl]-4-sulfonamide], the IC50 fell in the range of 0.1 to 1 µM. `O=C(Nc1cc(S(=O)(=O)NCC(F)(F)F)ccc1-c1ccccc1)Nc1c(F)cccc1F` [Compound 41, 2-(3-(2,6-difluorophenyl)ureido)-N-(2,2,2-trifluoroethyl)-[1,1′-biphenyl]-4-sulfonamide]: the IC50 fell in the range of 0.1 to 1 µM. Consider `O=C(Nc1ccccc1Cl)Nc1cc(S(=O)(=O)NCC(F)(F)F)ccc1-c1ccccc1` [Compound 42, 2-(3-(2-chlorophenyl)ureido)-N-(2,2,2-trifluoroethyl)-[1,1′-biphenyl]-4-sulfonamide], for which the IC50 is 0.1 to 1 µM.

Take `O=C(Nc1ccccc1OC(F)(F)F)Nc1cc(S(=O)(=O)NCC(F)(F)F)ccc1-c1ccccc1` [Compound 43, N-(2,2,2-trifluoroethyl)-2-(3-(2-(trifluoromethoxy)phenyl)ureido)-[1,1′-biphenyl]-4-sulfonamide]: the IC50 fell in the range of 0.1 to 1 µM.

`O=C(Nc1cccc(C(F)(F)F)c1)Nc1cc(S(=O)(=O)NCC(F)(F)F)ccc1-c1ccccc1` [Compound 44, N-(2,2,2-trifluoroethyl)-2-(3-(3-(trifluoromethyl)phenyl)ureido)-[1,1′-biphenyl]-4-sulfonamide]: the IC50 fell in the range of 0.1 to 1 µM. `O=C(Nc1cccc(C(F)(F)F)c1)Nc1cc(S(=O)(=O)NC2COC2)ccc1-c1ccccc1` [Compound 45, N-(oxetan-3-yl)-2-(3-(3-(trifluoromethyl)phenyl)ureido)-[1,1′-biphenyl]-4-sulfonamide]: the IC50 was less than 0.1 µM.

Turning to `N#CC1(NS(=O)(=O)c2ccc(-c3ccccc3)c(NC(=O)Nc3cccc(C(F)(F)F)c3)c2)CC1` [Compound 46, N-(1-cyanocyclopropyl)-2-(3-(3-(trifluoromethyl)phenyl)ureido)-[1,1′-biphenyl]-4-sulfonamide], the IC50 is 0.1 to 1 µM. The value for `Cc1cccc(-c2ccc(S(=O)(=O)NC3CCOCC3)cc2NC(=O)Nc2cccc(C(F)(F)F)c2)c1` [Compound 47, 3′-methyl-N-(tetrahydro-2H-pyran-4-yl)-2-(3-(3-(trifluoromethyl)phenyl)ureido)-[1,1′-biphenyl]-4-sulfonamide] was 0.1 to 1 µM; that for `Cc1cccc(-c2ccc(S(=O)(=O)NC3CC3)cc2NC(=O)Nc2cccc(C(F)(F)F)c2)c1` [Compound 48, N-cyclopropyl-3′-methyl-2-(3-(3-(trifluoromethyl)phenyl)ureido)-[1,1′-biphenyl]-4-sulfonamide] was 1 to 10 µM; that for `O=C(Nc1cccc(C(F)(F)F)c1)Nc1cc(S(=O)(=O)Nc2ccccc2)ccc1-c1cccc(O)c1` [Compound 50, 3′-hydroxy-N-phenyl-2-(3-(3-(trifluoromethyl)phenyl)ureido)-[1,1′-biphenyl]-4-sulfonamide] was 0.1 to 1 µM.

For the compound `COc1cccc(-c2ccc(S(=O)(=O)Nc3ccccc3)cc2NC(=O)Nc2cccc(C(F)(F)F)c2)c1` [Compound 51], the IC50 fell in the range of 1 to 10 µM. The same measure for `O=C(Nc1ccc(F)c(Cl)c1)Nc1cc(S(=O)(=O)NC2CC2)ccc1-c1ccccc1` [Compound 52]: 1 to 10 µM; for `O=C(Nc1ccc(F)cc1)Nc1cc(S(=O)(=O)NC2CC2)ccc1-c1ccccc1` [Compound 53]: 1 to 10 µM. The value for `O=C(Nc1cc(S(=O)(=O)NCC(F)(F)F)ccc1-c1ccccc1)NC1CCCC1` [Compound 54] was 1 to 10 µM; that for `O=C(Nc1ccc(F)c(Cl)c1)Nc1cc(S(=O)(=O)NCC(F)(F)F)ccc1-c1cccnc1` [Compound 55] was 1 to 10 µM.

With `O=C(Nc1ccc(F)c(C(F)(F)F)c1)Nc1cc(S(=O)(=O)NCC(F)(F)F)ccc1-c1cccnc1` [Compound 56], the IC50 was 1 to 10 µM. With `O=C(Nc1cccc(C(F)(F)F)c1)Nc1cc(S(=O)(=O)Nc2ccccc2)ccc1-c1cccc(Cl)c1` [Compound 57], the IC50 lay in the range of 1 to 10 µM. Take `CS(=O)(=O)c1cccc(-c2ccc(S(=O)(=O)Nc3ccccc3)cc2NC(=O)Nc2cccc(C(F)(F)F)c2)c1` [Compound 58]: the IC50 is 1 to 10 µM. With `COc1ccc(-c2ccc(S(=O)(=O)Nc3ccccc3)cc2NC(=O)Nc2cccc(C(F)(F)F)c2)cc1` [Compound 59], the IC50 was 1 to 10 µM. In the case of `O=C(Nc1cccc(C(F)(F)F)c1)Nc1cc(S(=O)(=O)Nc2ccccc2)ccc1-c1ccncc1` [Compound 60], the IC50 was in the range of 1 to 10 µM. The value for `O=C(Nc1cccc(C(F)(F)F)c1)Nc1cc(S(=O)(=O)Nc2ccccc2)ccc1-c1cccnc1` [Compound 61] was 1 to 10 µM; that for `Cc1ccc(-c2ccc(S(=O)(=O)Nc3ccccc3)cc2NC(=O)Nc2cccc(C(F)(F)F)c2)cc1` [Compound 62] was 1 to 10 µM; that for `O=C(Nc1cccc(C(F)(F)F)c1)Nc1cc(S(=O)(=O)Nc2ccccc2)ccc1-c1ccccc1F` [Compound 63] was 1 to 10 µM. As for `O=C(Nc1cccc(C(F)(F)F)c1)Nc1cc(S(=O)(=O)Nc2ccccc2)ccc1-c1cccc(F)c1` [Compound 64], the IC50 lay within 1 to 10 µM. The same measure for `O=C(Nc1cc(C(F)(F)F)ccn1)Nc1cc(S(=O)(=O)NCC(F)(F)F)ccc1-c1cccnc1` [Compound 65]: 1 to 10 µM. Take `O=C(Nc1cc(S(=O)(=O)NCC(F)(F)F)ccc1-c1ccccc1)NC1CCCCC1` [Compound 66, 2-(3-cyclohexylureido)-N-(2,2,2-trifluoroethyl)-[1,1′-biphenyl]-4-sulfonamide]: the IC50 fell in the range of 0.1 to 1 µM. On to `CS(=O)(=O)c1cccc(NC(=O)Nc2cc(S(=O)(=O)NCC(F)(F)F)ccc2-c2ccccc2)c1` [Compound 67, 2-(3-(3-(methylsulfonyl)phenyl)ureido)-N-(2,2,2-trifluoroethyl)-[1,1′-biphenyl]-4-sulfonamide], for which the IC50 was 0.1 to 1 µM. Take `O=C(Nc1ccc(F)cc1F)Nc1cc(S(=O)(=O)NCC(F)(F)F)ccc1-c1ccccc1` [Compound 68, 2-(3-(2,4-difluorophenyl)ureido)-N-(2,2,2-trifluoroethyl)-[1,1′-biphenyl]-4-sulfonamide]: the IC50 is 0.1 to 1 µM. The value for `O=C(Nc1ccc(F)c(C(F)(F)F)c1)Nc1cc(S(=O)(=O)NCC(F)(F)F)ccc1-c1ccccc1` [Compound 69, 2-(3-(4-fluoro-3-(trifluoromethyl)phenyl)ureido)-N-(2,2,2-trifluoroethyl)-[1,1′-biphenyl]-4-sulfonamide] was 0.1 to 1 µM; that for `O=C(Nc1nccs1)Nc1cc(S(=O)(=O)NCC(F)(F)F)ccc1-c1ccccc1` [Compound 70, 2-(3-(thiazol-2-yl)ureido)-N-(2,2,2-trifluoroethyl)-[1,1′-biphenyl]-4-sulfonamide] was 0.1 to 1 µM; that for `CC1CCCC(NC(=O)Nc2cc(S(=O)(=O)NCC(F)(F)F)ccc2-c2ccccc2)C1` (centres unmarked) [Compound 71, 2-(3-(3-methylcyclohexyl)ureido)-N-(2,2,2-trifluoroethyl)-[1,1′-biphenyl]-4-sulfonamide] was 0.1 to 1 µM.

With `O=C(Nc1cc(S(=O)(=O)NCC(F)(F)F)ccc1-c1ccccc1)NC1CCCC(C(F)(F)F)C1` (centres unmarked) [Compound 72, N-(2,2,2-trifluoroethyl)-2-(3-(3-(trifluoromethyl)cyclohexyl)ureido)-[1,1′-biphenyl]-4-sulfonamide], the IC50 lay within 0.1 to 1 µM. The value for `CC1(C)CCCC(NC(=O)Nc2cc(S(=O)(=O)NCC(F)(F)F)ccc2-c2ccccc2)C1` (centres unmarked) [Compound 73] was 1 to 10 µM; that for `O=C(Nc1cc(Cl)ccc1F)Nc1cc(S(=O)(=O)NCC(F)(F)F)ccc1-c1ccccc1` [Compound 74, 2-(3-(5-chloro-2-fluorophenyl)ureido)-N-(2,2,2-trifluoroethyl)-[1,1′-biphenyl]-4-sulfonamide] was 0.1 to 1 µM; that for `O=C(Nc1cc(S(=O)(=O)NCC(F)(F)F)ccc1-c1ccccc1)Nc1ccc(F)cc1C(F)(F)F` [Compound 76, 2-(3-(4-fluoro-2-(trifluoromethyl)phenyl)ureido)-N-(2,2,2-trifluoroethyl)-[1,1′-biphenyl]-4-sulfonamide] was 0.1 to 1 µM.

The record behind these values is patent publication US10202339B2, “Therapeutic compounds and compositions” (AGIOS PHARMACEUTICALS, INC., priority 2012, dated 2019).
